The supplement of paper PMC11061612

How the values were obtained:
Test in all cases: combination Emax (second highest fraction inhibited in the dose matrix, 72 h); higher = more inhibition; extreme values may be limits of the assay
[1] = tested on: CCRF-CEM (T-Lymphoblastic Leukemia)
How it was run: (§1)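 After 24 hours at 37°C and 5% CO2 in 1536-well plates, cells in DMEM/F12 or RPMI plus 10% FBS received two-drug dose matrices for 72 hours. Viability came from CellTiter-Glo 2.0 luminescence and was scaled as inhibition, anchored at 0 by vehicle wells and at 1 by blank wells. Combination Emax is taken as the second-highest inhibition in the matrix, and Bliss excess as the observed combination effect less EA + EB − EA·EB, with EA and EB the single-agent effects.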

[2] = tested on: HCC1806 (Breast Carcinoma)
How it was run: as §1

[3] = tested on: HCC-78 (Lung Adenocarcinoma)
How it was run: as §1

ES4 (Ewing's Sarcoma) = tested on: ES4 (Ewing's Sarcoma)
How it was run: as §1

[4] = tested on: KP-1N (Pancreatic Carcinoma)
How it was run: as §1

NB10 (Neuroblastoma) = tested on: NB10 (Neuroblastoma)
How it was run: as §1

[5] = tested on: NCI-H2085 (Non-Small Cell Lung Carcinoma)
How it was run: as §1

[6] = tested on: Daoy (Other Solid Carcinomas)
How it was run: as §1

[7] = tested on: Ramos-2G6-4C10 (Burkitt's Lymphoma)
How it was run: as §1

[8] = tested on: RC-K8 (B-Cell Non-Hodgkin's Lymphoma)
How it was run: as §1

[9] = tested on: TE-15 (Esophageal Squamous Cell Carcinoma)
How it was run: as §1

T98G (Glioblastoma) = tested on: T98G (Glioblastoma)
How it was run: as §1

[10] = tested on: TCCSUP (Bladder Carcinoma)
How it was run: as §1

[11] = tested on: DoTc2-4510 (Cervical Carcinoma)
How it was run: as §1

[12] = tested on: Calu-3 (Lung Adenocarcinoma)
How it was run: as §1

[13] = tested on: LU-135 (Small Cell Lung Carcinoma)
How it was run: as §1

[14] = tested on: TE-9 (Esophageal Squamous Cell Carcinoma)
How it was run: as §1

42-MG-BA (Glioblastoma) = tested on: 42-MG-BA (Glioblastoma)
How it was run: as §1

[15] = tested on: ME-1 (Acute Myeloid Leukemia)
How it was run: as §1

[16] = tested on: COLO-205 (Colorectal Carcinoma)
How it was run: as §1

`C[C@@H](c1ccc2nccn2c1)n1nnc2ncc(-c3cnn(C)c3)nc21` [Savolitinib] + CC1(C)CCC(CN2CCN(c3ccc(C(=O)NS(=O)(=O)c4ccc(NCC5CCOCC5)c([N+](=O)[O-])c4)c(Oc4cnc5[nH]ccc5c4)c3)CC2)=C(c2ccc(Cl)cc2)C1 [Venetoclax] (first compound max 1 µM, 7x7, partner max 1 µM) was tested, and the “combination Emax” value [1] was 0.124, the “combination Emax” value [2] was 0.142 and the “combination Emax” value [3] was 0.145. For the same compound, the “combination Emax” value (ES4 (Ewing's Sarcoma)) was 0.113, the “combination Emax” value [4] was 0.13 and the “combination Emax” value (NB10 (Neuroblastoma)) was 0.149. The “combination Emax” value [5] was 0.107, the “combination Emax” value [6] was 0.152 and the “combination Emax” value [7] was 0.169. The “combination Emax” value [8] was 0.129, the “combination Emax” value [9] was 0.287 and the “combination Emax” value (T98G (Glioblastoma)) was 0.159. The “combination Emax” value [10] was 0.143, the “combination Emax” value [11] was 0.182 and the “combination Emax” value [12] was 0.153. The “combination Emax” value [13] was 0.114, the “combination Emax” value [14] was 0.152 and the “combination Emax” value (42-MG-BA (Glioblastoma)) was 0.166. The “combination Emax” value [15] was 1 and the “combination Emax” value [16] was 0.0209.

`C[C@@H](c1ccc2nccn2c1)n1nnc2ncc(-c3cnn(C)c3)nc21` [Savolitinib] + Cc1c2c(nn1C)CSCc1cc(n(C)n1)CSc1cc(c3ccccc3c1)OCCCc1c(C(=O)O)n(C)c3c-2c(Cl)ccc13 [AZD5991] (first compound max 1 µM, 7x7, partner max 1 µM) was tested, and the “combination Emax” value [1] was 0.151, the “combination Emax” value [2] was 0.2 and the “combination Emax” value [3] was 0.18. The “combination Emax” value (ES4 (Ewing's Sarcoma)) was 0.117, the “combination Emax” value [4] was 0.194 and the “combination Emax” value (NB10 (Neuroblastoma)) was 0.202. The “combination Emax” value [5] was 0.158, the “combination Emax” value [6] was 0.126 and the “combination Emax” value [7] was 0.975. For the same compound, the “combination Emax” value [8] was 0.113, the “combination Emax” value [9] was 0.282 and the “combination Emax” value (T98G (Glioblastoma)) was 0.12. For the same compound, the “combination Emax” value [10] was 0.252, the “combination Emax” value [11] was 0.205 and the “combination Emax” value [12] was 0.2. The “combination Emax” value [13] was 0.194, the “combination Emax” value [14] was 0.239 and the “combination Emax” value (42-MG-BA (Glioblastoma)) was 0.192. The “combination Emax” value [15] was 0.397 and the “combination Emax” value [16] was 0.0758.

In the case of `Cn1cnc2c(F)c(Nc3ccc(Br)cc3Cl)c(C(=O)NOCCO)cc21` [Selumetinib] + C=CCn1c(=O)c2cnc(Nc3ccc(N4CCN(C)CC4)cc3)nc2n1-c1cccc(C(C)(C)O)n1 [AZD1775] (first compound max 10 µM, partner max 1 µM), the “combination Emax” value [1] was 0.996, the “combination Emax” value [2] was 0.919 and the “combination Emax” value [3] was 0.345. The “combination Emax” value (ES4 (Ewing's Sarcoma)) was 0.433, the “combination Emax” value [4] was 0.257 and the “combination Emax” value (NB10 (Neuroblastoma)) was 0.712. The “combination Emax” value [5] was 0.271, the “combination Emax” value [6] was 0.844 and the “combination Emax” value [7] was 0.997. For the same compound, the “combination Emax” value [8] was 0.72, the “combination Emax” value [9] was 0.74 and the “combination Emax” value (T98G (Glioblastoma)) was 0.699. For the same compound, the “combination Emax” value [10] was 0.429, the “combination Emax” value [11] was 0.251 and the “combination Emax” value [12] was 0.143. For the same compound, the “combination Emax” value [13] was 0.583, the “combination Emax” value [14] was 0.231 and the “combination Emax” value (42-MG-BA (Glioblastoma)) was 0.282. The “combination Emax” value [15] was 0.484 and the “combination Emax” value [16] was 0.85.

With `Cn1cnc2c(F)c(Nc3ccc(Br)cc3Cl)c(C(=O)NOCCO)cc21` [Selumetinib] + CC(C)n1c(=O)n(C)c2cnc3cc(F)c(-c4ccc(OCCCN5CCCCC5)nc4)cc3c21 [AZD1390] (first compound max 10 µM, 7x7, partner max 0.3 µM) the “combination Emax” value [1] was 0.108, the “combination Emax” value [2] was 0.299 and the “combination Emax” value [3] was 0.123. For the same compound, the “combination Emax” value (ES4 (Ewing's Sarcoma)) was 0.0668, the “combination Emax” value [4] was 0.102 and the “combination Emax” value (NB10 (Neuroblastoma)) was 0.32. The “combination Emax” value [5] was 0.191, the “combination Emax” value [6] was 0.126 and the “combination Emax” value [7] was 0.137. For the same compound, the “combination Emax” value [8] was 0.209, the “combination Emax” value [9] was 0.409 and the “combination Emax” value (T98G (Glioblastoma)) was 0.191. For the same compound, the “combination Emax” value [10] was 0.109, the “combination Emax” value [11] was 0.144 and the “combination Emax” value [12] was 0.115. For the same compound, the “combination Emax” value [13] was 0.136, the “combination Emax” value [14] was 0.13 and the “combination Emax” value (42-MG-BA (Glioblastoma)) was 0.185. The “combination Emax” value [15] was 0.434 and the “combination Emax” value [16] was 0.705.

With `Cn1cnc2c(F)c(Nc3ccc(Br)cc3Cl)c(C(=O)NOCCO)cc21` [Selumetinib] + CCN(CCO)CCCOc1ccc2c(Nc3cc(CC(=O)Nc4cccc(F)c4)[nH]n3)ncnc2c1 [AZD2811] (first compound max 10 µM, 7x7, partner max 1 µM) the “combination Emax” value [1] was 0.968, the “combination Emax” value [2] was 0.321 and the “combination Emax” value [3] was 0.267. The “combination Emax” value (ES4 (Ewing's Sarcoma)) was 0.145, the “combination Emax” value [4] was 0.135 and the “combination Emax” value (NB10 (Neuroblastoma)) was 0.397. The “combination Emax” value [5] was 0.492, the “combination Emax” value [6] was 0.356 and the “combination Emax” value [7] was 0.117. The “combination Emax” value [8] was 0.443, the “combination Emax” value [9] was 0.492 and the “combination Emax” value (T98G (Glioblastoma)) was 0.226. The “combination Emax” value [10] was 0.217, the “combination Emax” value [11] was 0.224 and the “combination Emax” value [12] was 0.134. The “combination Emax” value [13] was 0.933, the “combination Emax” value [14] was 0.175 and the “combination Emax” value (42-MG-BA (Glioblastoma)) was 0.447. The “combination Emax” value [15] was 0.413 and the “combination Emax” value [16] was 0.983.

With `Cn1cnc2c(F)c(Nc3ccc(Br)cc3Cl)c(C(=O)NOCCO)cc21` [Selumetinib] + C[C@@H]1COCCN1C2=NC(=NC(=C2)C3(CC3)[S@](=N)(=O)C)C4=C5C=CNC5=NC=C4 [AZD6738] (first compound max 10 µM, 7x7, partner max 10 µM) the “combination Emax” value [1] was 0.963, the “combination Emax” value [2] was 0.938 and the “combination Emax” value [3] was 0.537. The “combination Emax” value (ES4 (Ewing's Sarcoma)) was 0.864, the “combination Emax” value [4] was 0.175 and the “combination Emax” value (NB10 (Neuroblastoma)) was 0.916. For the same compound, the “combination Emax” value [5] was 0.35, the “combination Emax” value [6] was 0.882 and the “combination Emax” value [7] was 0.847. The “combination Emax” value [8] was 0.87, the “combination Emax” value [9] was 0.834 and the “combination Emax” value (T98G (Glioblastoma)) was 0.731. For the same compound, the “combination Emax” value [10] was 0.546, the “combination Emax” value [11] was 0.392 and the “combination Emax” value [12] was 0.408. The “combination Emax” value [13] was 0.753, the “combination Emax” value [14] was 0.147 and the “combination Emax” value (42-MG-BA (Glioblastoma)) was 0.53. The “combination Emax” value [15] was 0.469 and the “combination Emax” value [16] was 0.76.
